Reference: patent US8592611B2, “Trioxane dimer sulfur compounds” (The Johns Hopkins University, priority 2008, dated 2013)

What was measured:
[1] = test system: chloroquine-sensitive P. falciparum (NF54); test: in vitro antimalarial activity, [3H]hypoxanthine incorporation; format: cell-based; details: Plasmodium falciparum
Excerpt: To determine the antimalarial effect of the disclosed trioxane sulfur dimer compounds of Formula I, screening assays may be performed against chloroquine-sensitive P. falciparum (NF54). Using the methods described below, the IC50 values of these compounds may be determined.
Antimalarial activity may be determined by measuring the incorporation of [^3H]hypoxanthine by the methods of DesJardins and Milhous with the following modifications, see Desjardins, R. E.; Canfield, C. J.; Haynes, J. D.; Chulay, J. D., Antimicrob. Agents Chemother., 16:710 (1979); Milhous, W. K.; Weatherly, N. F.; Bowdre, J. H.; Desjardins, R., Antimicrob. Agents Chemother., 27:525 (1985). […]
Stock solutions (approximately 2.5 mg/mL of HPLC-purified or recrystallized test compound) are prepared in dimethyl sulfoxide (DMSO; Sigma-Aldrich #27,043-1). […] Cells may be harvested (Brandel MB-48R) onto GF-C glass filters (Brandel), and the filters washed five times with 3 mL water per sample spot, dried under a heat lamp, and counted (Beckman Model LS-6500) in scintillation cocktail (ICN Cytoscint).
Decays per minute (dpm) values may be downloaded and analyzed (Power Macintosh 7200/90; Microsoft Excel 5.0), to yield the mean and standard deviation at each drug concentration. […]

P388 leukemia = details: NCI Report on NSC 369397, tested on 25 Oct. 1983; cited from earlier work
[2] = test system: P. vivax and P. falciparum; details: 2099 cases of malaria (P. vivax and P. falciparum about 3:1), different dosage forms; cited from earlier work
[3] = test system: human HeLa cervical cancer cells; details: human HeLa cervical cancer cells in vitro; cited from earlier work

Row | SMILES | IC50 [1] [nM] | activity against P388 leukemia (P388 leukemia) | clinical outcome [2] | IC50 [3] [nM]
1 | C[C@@H]1CC[C@H]2[C@@H](C)C(=O)O[C@@H]3O[C@]4(C)CC[C@@H]1[C@]32OO4 [artemisinin] | 7.7 | inactive | clinical cure of all patients | 
2 | C[C@@H]1CC[C@H]2[C@@H](C)C(O)O[C@@H]3O[C@]4(C)CC[C@@H]1[C@]32OO4 (stereo partly shown) [dihydroartemisinin] |  |  |  | 5000 to 10000
